The conditions of data set [1]: intraperitoneally administered to mice; cited from earlier work.
Data set [2] can be described thus: Direct intraperitoneal administration of carboplatin to mice. The following applies: same amount of carboplatin as contained in the cotton-like carrier. It is filed as in vivo, mouse. As to the method:
On the other hand, the mice to which PBS was administered lived three weeks or more after administration, and were therefore euthanized in the fourth week after administration.

Data set [3] can be described thus: LD50 of carboplatin intraperitoneally administered to mice. It is filed as in vivo. The conditions noted are these: mouse having a body weight of 30 g.

On to `N.N.O=C([O-])C1(C(=O)[O-])CCC1.[Pt+2]` [carboplatin, cis-Diamine(1,1-cyclobutanedicarboxylato)platinum (II)], for which the “LD50 (50% lethal dose)” value in data set [1] is listed as 150 mg/kg. Moreover, in data set [2] (healthy mice), the “survival after direct intraperitoneal administration” value is “all the mice died within several days”. For the same compound, in data set [2], the “findings at dissection after direct intraperitoneal administration” value is “The intestines were necrosed and became dysfunctional”. Also, the LD50 per mouse in data set [3] turned out to be 4.5 mg.

The values are drawn from patent US20180021485A1, “METHOD FOR MANUFACTURING DRUG-CONTAINING BIODEGRADABLE FIBER MATERIAL BY ELECTROSPINNING” (ORTHOREBIRTH CO., LTD., priority 2015, published 2018).
